Measured values published in ChEMBL document CHEMBL1201862, “PubChem BioAssay data set” (2004).
Values joined by “and” are separate entries in the source; they are usually repeats but may differ in a detail not shown here. Identical values can stand only once. Active and inactive are the calls of the source.

Experiments:
[1] = HEK-293T viability loss after treatment – luminescence, T-cell screen hits, cytotoxicity control for TCR NF-kB inhibitor project, dose response (AID 489026); assay type: functional, cell-based;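 note: cells exposed to compound about 14 hours before the viability readout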
[2] = target: Beta-2 adrenergic receptor (Homo sapiens, UniProt P07550); assay: ADRB2 activation measured by internalization – cell-based, FAP fluorogen, flow cytometry, cherry pick 1, dose response (AID 588763); assay type: functional
Beta-2 adrenergic receptor, sequence (P07550 whole entry): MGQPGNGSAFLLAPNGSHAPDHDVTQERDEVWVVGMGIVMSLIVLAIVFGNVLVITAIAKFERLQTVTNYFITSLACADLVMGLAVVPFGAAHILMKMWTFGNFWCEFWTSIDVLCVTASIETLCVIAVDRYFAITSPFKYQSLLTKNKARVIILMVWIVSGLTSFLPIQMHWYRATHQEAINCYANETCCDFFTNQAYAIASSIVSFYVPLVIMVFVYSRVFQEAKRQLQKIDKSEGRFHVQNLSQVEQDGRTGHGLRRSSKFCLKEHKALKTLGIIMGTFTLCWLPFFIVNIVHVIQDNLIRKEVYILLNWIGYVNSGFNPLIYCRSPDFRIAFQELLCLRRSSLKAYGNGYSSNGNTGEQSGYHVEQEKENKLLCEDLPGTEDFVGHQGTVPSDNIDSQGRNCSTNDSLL

[3] = target: T1, Calpain-2 catalytic subunit (Sus scrofa, UniProt P43367); assay: m-calpain protease blockers, concentration series – biochemical, fluorogenic peptide substrate, dose response (AID 1420); assay type: functional
T1 sequence (P43367 whole entry): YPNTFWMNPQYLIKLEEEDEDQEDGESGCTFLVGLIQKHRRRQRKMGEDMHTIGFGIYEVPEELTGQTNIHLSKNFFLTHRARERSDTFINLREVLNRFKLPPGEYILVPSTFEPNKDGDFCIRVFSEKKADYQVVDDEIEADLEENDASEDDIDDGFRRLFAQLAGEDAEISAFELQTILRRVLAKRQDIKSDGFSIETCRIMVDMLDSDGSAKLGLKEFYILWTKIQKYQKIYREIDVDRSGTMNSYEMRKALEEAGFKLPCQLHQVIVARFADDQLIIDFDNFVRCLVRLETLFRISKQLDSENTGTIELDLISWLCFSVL

[4] = viability of uninfected HEp-2 cells – cell-based, HTS, cytotoxicity control for RSV inhibitor project, dose response (AID 2410); assay type: functional; settings: human respiratory syncytial virus
[5] = target: T2, DNA repair protein RAD52 homolog (Homo sapiens, UniProt P43351); assay type: functional, biochemical
T2 sequence (P43351 whole entry): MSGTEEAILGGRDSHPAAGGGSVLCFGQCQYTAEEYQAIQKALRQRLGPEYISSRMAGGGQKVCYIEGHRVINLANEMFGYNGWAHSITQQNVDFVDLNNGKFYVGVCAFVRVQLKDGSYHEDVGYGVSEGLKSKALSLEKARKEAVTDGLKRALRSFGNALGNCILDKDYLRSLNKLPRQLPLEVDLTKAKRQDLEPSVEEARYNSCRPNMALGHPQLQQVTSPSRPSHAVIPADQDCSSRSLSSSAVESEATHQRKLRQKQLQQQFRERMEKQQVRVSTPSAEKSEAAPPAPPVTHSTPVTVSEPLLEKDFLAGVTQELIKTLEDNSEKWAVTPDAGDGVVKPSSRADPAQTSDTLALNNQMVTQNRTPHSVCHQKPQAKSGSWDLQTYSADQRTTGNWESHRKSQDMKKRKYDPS

[6] = target: T3, High affinity choline transporter 1 (Homo sapiens, UniProt Q9GZV3); assay: human choline transporter blockers, potency – cell-based, 5-point CRC, membrane potential dye, dose response (AID 504840); assay type: functional
T3 sequence (Q9GZV3 whole entry): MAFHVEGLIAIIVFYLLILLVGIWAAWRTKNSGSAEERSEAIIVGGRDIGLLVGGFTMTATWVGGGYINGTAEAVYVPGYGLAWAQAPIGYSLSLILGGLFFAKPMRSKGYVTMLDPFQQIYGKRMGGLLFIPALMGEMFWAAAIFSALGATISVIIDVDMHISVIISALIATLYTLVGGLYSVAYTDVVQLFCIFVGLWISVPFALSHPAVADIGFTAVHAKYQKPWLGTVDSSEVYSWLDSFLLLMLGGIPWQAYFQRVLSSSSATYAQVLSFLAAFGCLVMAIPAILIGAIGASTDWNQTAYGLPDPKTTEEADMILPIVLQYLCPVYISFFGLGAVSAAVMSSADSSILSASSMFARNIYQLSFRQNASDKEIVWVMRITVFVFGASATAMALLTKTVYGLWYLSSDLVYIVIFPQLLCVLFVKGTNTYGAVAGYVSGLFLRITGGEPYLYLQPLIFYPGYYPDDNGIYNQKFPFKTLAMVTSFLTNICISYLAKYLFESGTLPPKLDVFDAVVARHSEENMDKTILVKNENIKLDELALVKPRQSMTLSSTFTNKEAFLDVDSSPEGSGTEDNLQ

[7] = target: T3, High affinity choline transporter 1; assay: human choline transporter blockers, potency – cell-based, 10-point CRC, membrane potential dye, dose response (AID 588401); assay type: functional;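 note: membrane potential dye fluorescence of choline-evoked depolarization via CHT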
[8] = off-target signal loss in HeLa-CEM21 co-culture – HeLa F-luc CTL cells, cherry-picked, counter-screen for HIV-1 Env fusion inhibitor project, dose response (AID 652040); assay type: functional, cell-based;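 note: potency for signal decrease marking cytotoxic or nonspecific inhibition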
[9] = blockers of HIV-1 ZM109 envelope-driven cell-cell fusion – HeLa effector, CEM target cells, luciferase, cherry-pick, dose response (AID 652058); assay type: functional, cell-based;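 note: luciferase signal from HIV-1 Env mediated cell-cell fusion of effector and target cells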
[10] = blockers of HIV-1 envelope-mediated cell-cell fusion – cherry-pick, dose response (AID 652057); assay type: functional, cell-based

In the case of `COc1cc([C@@H]2c3cc4c(cc3[C@@H](OC)[C@H]3COC(=O)[C@H]23)OCO4)cc(OC)c1O`, the IC50 [1] is reported as > 80 µM (inactive).
With `COCCCNc1ncnc2c1sc1nc(-c3ccco3)c3c(c12)CC(C)(C)OC3` the EC50 [2] was 0.0417 µM (active).
In the case of `CC(=O)Nc1cc(C(=O)OC(C(=O)c2ccccc2)c2ccccc2)ccc1C` (stereo unspecified), the IC50 [3] is reported as > 50 µM (not active) and the EC50 [2] is reported as 0.402 µM (active).
With `O=C(Nc1cccc(-c2nc3ccccc3s2)c1)c1cccs1` the EC50 [2] was 16.9 µM (inactive) and the CC50 [4] was 15.4 µM (active).
With `CN(C)CCCNc1nc2cc(-c3cccc(C(F)(F)F)c3)sc2c(=O)n1C` the AC50 [5] was 7.9 µM (active).
In the case of `CCC(=O)c1ccc(OCC(=O)N2CCN(CC(=O)Nc3ccc(C)cc3)CC2)cc1`, the EC50 [2] is reported as 0.0646 µM (active).
In the case of `Cc1ccccc1NC(=O)c1ccc(C)c(S(=O)(=O)NCc2cccnc2)c1`, the IC50 [6] is reported as 9.77 µM (active) and the IC50 [7] is reported as 5.77 µM (active).
With `COC(=O)C1(C(=O)OC)C[C@H](c2ccc(OC)cc2)N(Cc2ccccc2OC)[C@@H]1c1cccs1` the AC50 [8] was 4.05 µM (active) and 2.64 µM (active), the AC50 [9] was 4.03 µM (active) and 2.19 µM (active) and the AC50 [10] was 2.05 µM (active) and 2.55 µM (active).
With `NC1(N2SC(S)=C3CCCC=C32)CCCCC1` the AC50 [5] was 12.1 µM (active).
In the case of `Oc1cc(-c2ccccc2)nc2cc(F)ccc12`, the IC50 [1] is reported as > 80 µM (inactive).
With `C=CC[N@@+]12CC[C@]34c5ccccc5N5/C=C6\C7N(/C=C(\C53)[C@@H](C[C@@H]41)/C(=C/CO)C2)c1ccccc1[C@@]71CC[N@@+]2(CC=C)C/C(=C\CO)[C@@H]6C[C@@H]12` (stereo partly specified) the AC50 [5] was 16.5 µM (active).
